The record followed here is PubChem BioAssay AID330 (DTP/NCI, 2004).

Several values for one entry are separate records, joined by “and”; a condition that tells them apart may be missing. Equal values may be shown once. Inconclusive results and toxic doses are left out.

The test deals with P388 leukemia ip, CD2F1 mice, survival T/C. The experiment in a line: NCI In Vivo Anticancer Drug Screen. Data for tumor model P388 Leukemia (intraperitoneal) in CD2F1 (CDF1) mice. The following applies: endpoint: median survival time, higher = longer survival. A digest of the protocol: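 Mice carrying the transplanted tumor received test compound or vehicle. Survival was recorded in each group, and the value is the treated-group measurement divided by that of the vehicle-treated control group.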

Where [1] appears, read: dose: 50.0 mg/kg/injection, schedule: Q01DX009 (ip), vehicle: Klucel (hydroxypropylcellulose) (HPC).
[2] abbreviates: dose: 100.0 mg/kg/injection, schedule: Q01DX009 (ip), vehicle: Klucel (hydroxypropylcellulose) (HPC).
The mark [3] stands for this setting: dose: 50.0 mg/kg/injection, schedule: Q01DX009 (ip), vehicle: saline with Tween-80.
[4] abbreviates: dose: 100.0 mg/kg/injection, schedule: Q01DX001 (ip), vehicle: saline.
Setting [5] is: dose: 200.0 mg/kg/injection, schedule: Q01DX001 (ip), vehicle: saline.
Where [6] appears, read: dose: 400.0 mg/kg/injection, schedule: Q01DX001 (ip), vehicle: saline.
The mark [7] stands for this setting: dose: 100.0 mg/kg/injection, schedule: Q01DX009 (ip), vehicle: saline.

As for `O=C1CC(C2(c3ccc4c(c3)OCO4)SCCCS2)CO1` (stereo not given), the T/C reads like this: (dose: 100.0 mg/kg/injection, schedule: Q01DX001 (ip), vehicle: Klucel (hydroxypropylcellulose) (HPC)) 101 % of control; (dose: 200.0 mg/kg/injection, schedule: Q01DX001 (ip), vehicle: Klucel (hydroxypropylcellulose) (HPC)) 106 % of control; (dose: 400.0 mg/kg/injection, schedule: Q01DX001 (ip), vehicle: Klucel (hydroxypropylcellulose) (HPC)) 99 % of control.
`CC(C)CCC[C@@H](C)[C@H]1CC[C@H]2[C@@H]3CC=C4C[C@@H](OC(=O)Cc5ccc(N(CCCl)CCCl)cc5)CC[C@]4(C)[C@H]3CC[C@]12C`: the T/C (dose: 50.0 mg/kg/injection, schedule: Q01DX010 (ip), vehicle: Klucel (hydroxypropylcellulose) (HPC)) was 101 % of control; the T/C (dose: 100.0 mg/kg/injection, schedule: Q01DX010 (ip), vehicle: Klucel (hydroxypropylcellulose) (HPC)) was 99 % of control; the T/C (dose: 200.0 mg/kg/injection, schedule: Q01DX010 (ip), vehicle: Klucel (hydroxypropylcellulose) (HPC)) was 101 % of control; the T/C (dose: 400.0 mg/kg/injection, schedule: Q01DX010 (ip), vehicle: Klucel (hydroxypropylcellulose) (HPC)) was 105 % of control; the T/C (dose: 800.0 mg/kg/injection, schedule: Q01DX010 (ip), vehicle: Klucel (hydroxypropylcellulose) (HPC)) is 92 % of control.
`Cc1ccc(S(=O)(=O)N=S(CCO)CCO)cc1`: the T/C is 106 % of control under setting [1]; 110 % of control under setting [2]; 108 % of control (dose: 200.0 mg/kg/injection, schedule: Q01DX009 (ip), vehicle: Klucel (hydroxypropylcellulose) (HPC)); 107 % of control (dose: 400.0 mg/kg/injection, schedule: Q01DX009 (ip), vehicle: Klucel (hydroxypropylcellulose) (HPC)).
Turning to `CN(C)C(C)(C#N)C(N)=O` (stereo not given), the T/C runs as follows: (dose: 1.56 mg/kg/injection, schedule: Q04DX003 (ip), vehicle: saline) 103 % of control and 93 % of control; (dose: 3.12 mg/kg/injection, schedule: Q04DX003 (ip), vehicle: saline) 101 % of control; (dose: 6.25 mg/kg/injection, schedule: Q04DX003 (ip), vehicle: saline) 100 % of control and 96 % of control and 98 % of control.
In the case of `Nc1ccc(S(=O)(=O)c2ccc(N)cc2)cc1`, the T/C is 106 % of control (dose: 6.25 mg/kg/injection, schedule: Q01DX005 (ip), vehicle: Klucel (hydroxypropylcellulose) (HPC)); 98 % of control (dose: 12.5 mg/kg/injection, schedule: Q01DX005 (ip), vehicle: Klucel (hydroxypropylcellulose) (HPC)); 104 % of control (dose: 25.0 mg/kg/injection, schedule: Q01DX005 (ip), vehicle: Klucel (hydroxypropylcellulose) (HPC)); 105 % of control (dose: 50.0 mg/kg/injection, schedule: Q01DX005 (ip), vehicle: Klucel (hydroxypropylcellulose) (HPC)); 109 % of control (dose: 100.0 mg/kg/injection, schedule: Q01DX005 (ip), vehicle: Klucel (hydroxypropylcellulose) (HPC)); 109 % of control and 93 % of control (dose: 150.0 mg/kg/injection, schedule: Q01DX009 (ip), vehicle: saline with Tween-80). Besides, the T/C (dose: 200.0 mg/kg/injection, schedule: Q01DX009 (ip), vehicle: saline with Tween-80) was 98 % of control and 105 % of control.
With `CCOC(=O)c1ccccc1Nc1c(C(=O)OCC)cnc2cc3c(cc12)OCO3`, the T/C is, setting by setting: (dose: 60.0 mg/kg/injection, schedule: Q01DX005 (ip), vehicle: Klucel (hydroxypropylcellulose) (HPC)) 106 % of control; (dose: 120.0 mg/kg/injection, schedule: Q01DX005 (ip), vehicle: Klucel (hydroxypropylcellulose) (HPC)) 98 % of control; (dose: 240.0 mg/kg/injection, schedule: Q01DX005 (ip), vehicle: Klucel (hydroxypropylcellulose) (HPC)) 97 % of control.
Take `O=C(O)CCCCC1CCSS1` (stereo not given): the T/C is 103 % of control (dose: 15.63 mg/kg/injection, schedule: Q01DX005 (ip), vehicle: Klucel (hydroxypropylcellulose) (HPC)); 103 % of control (dose: 31.25 mg/kg/injection, schedule: Q01DX005 (ip), vehicle: Klucel (hydroxypropylcellulose) (HPC)); 94 % of control (dose: 62.5 mg/kg/injection, schedule: Q01DX005 (ip), vehicle: Klucel (hydroxypropylcellulose) (HPC)); 97 % of control (dose: 125.0 mg/kg/injection, schedule: Q01DX005 (ip), vehicle: Klucel (hydroxypropylcellulose) (HPC)).
`COc1ccc2c(c1)Oc1c(Cl)c3c(c(Cl)c1=N2)Oc1cc(OC)ccc1N=3`: the T/C by setting is: (dose: 100.0 mg/kg/injection, schedule: Q01DX001 (ip), vehicle: saline with Tween-80) 89 % of control; (dose: 200.0 mg/kg/injection, schedule: Q01DX001 (ip), vehicle: saline with Tween-80) 89 % of control; (dose: 400.0 mg/kg/injection, schedule: Q01DX001 (ip), vehicle: saline with Tween-80) 115 % of control.
As for `C=C(C)CC1CN2CCc3cc(OC)c(OC)cc3C2CC1=O` (stereo not given), the T/C reads like this: under setting [1], 106 % of control; under setting [3], 102 % of control; under setting [2], 104 % of control; (dose: 100.0 mg/kg/injection, schedule: Q01DX009 (ip), vehicle: saline with Tween-80) 116 % of control.
Consider `C1=C(c2ccccc2)OC(c2ccccc2)=C[P+]1(c1ccccc1)c1ccccc1`, for which the T/C runs as follows: (dose: 1.56 mg/kg/injection, schedule: Q01DX005 (ip), vehicle: saline with Tween-80) 105 % of control; (dose: 3.12 mg/kg/injection, schedule: Q01DX005 (ip), vehicle: saline with Tween-80) 120 % of control; (dose: 6.25 mg/kg/injection, schedule: Q01DX005 (ip), vehicle: saline with Tween-80) 97 % of control.
Turning to `COC(=O)CCCC/C=C\CCCCCCC1C=CCC1` (stereo not given), the T/C is 100 % of control under setting [4], 101 % of control under setting [5] and 101 % of control under setting [6].
For the compound `CC1C2OC(=O)C1(C)c1ccccc1C2=O` (stereo not given), the T/C by setting is: (dose: 12.5 mg/kg/injection, schedule: Q01DX001 (ip), vehicle: Klucel (hydroxypropylcellulose) (HPC)) 109 % of control; (dose: 25.0 mg/kg/injection, schedule: Q01DX001 (ip), vehicle: Klucel (hydroxypropylcellulose) (HPC)) 99 % of control; (dose: 50.0 mg/kg/injection, schedule: Q01DX001 (ip), vehicle: Klucel (hydroxypropylcellulose) (HPC)) 103 % of control.
As to `C=CC(=O)NCNC(=O)CCBr`, the T/C is 109 % of control (dose: 25.0 mg/kg/injection, schedule: Q04DX003 (ip), vehicle: saline with Tween-80); 186 % of control under setting [3]; 150 % of control (dose: 100.0 mg/kg/injection, schedule: Q04DX003 (ip), vehicle: saline with Tween-80); 159 % of control and 190 % of control (dose: 200.0 mg/kg/injection, schedule: Q04DX003 (ip), vehicle: saline with Tween-80); 172 % of control (dose: 300.0 mg/kg/injection, schedule: Q04DX003 (ip), vehicle: saline with Tween-80).
In the case of `CCOC(=O)Nc1cc(NC(C)CCCN(CC)CC)c2ncc(-c3cc(OC)c(OC)c(OC)c3)nc2n1` (stereo not given) (tested in a mixture with another compound), the T/C is 118 % of control (dose: 66.0 mg/kg/injection, schedule: Q01DX009 (ip), vehicle: saline); 109 % of control under setting [7]; 104 % of control (dose: 150.0 mg/kg/injection, schedule: Q01DX009 (ip), vehicle: saline).
In the case of `COC(=O)CC1(C(=O)OC)C2CCCN2C2(C#N)c3ccccc3CCC12Br` (stereo not given), the T/C is 111 % of control under setting [4], 117 % of control under setting [5] and 104 % of control under setting [6].
`N#CC(C(=O)CCCC(=O)Nc1ccc(Cl)cc1)c1ccccc1Cl` (stereo not given): the T/C is 113 % of control (dose: 60.0 mg/kg/injection, schedule: Q01DX005 (ip), vehicle: saline with Tween-80); 113 % of control (dose: 120.0 mg/kg/injection, schedule: Q01DX005 (ip), vehicle: saline with Tween-80); 106 % of control (dose: 240.0 mg/kg/injection, schedule: Q01DX005 (ip), vehicle: saline with Tween-80).
For `CCCCCCC[N+]1([O-])CCOCC1`, the T/C was 99 % of control (dose: 50.0 mg/kg/injection, schedule: Q01DX009 (ip), vehicle: saline); 100 % of control under setting [7]; 97 % of control (dose: 200.0 mg/kg/injection, schedule: Q01DX009 (ip), vehicle: saline).
As for `CCC(=O)c1nc(N)[nH]c1CC`, the T/C is 101 % of control (dose: 2.5 mg/kg/injection, schedule: Q01DX005 (ip), vehicle: Klucel (hydroxypropylcellulose) (HPC)); 93 % of control (dose: 5.0 mg/kg/injection, schedule: Q01DX005 (ip), vehicle: Klucel (hydroxypropylcellulose) (HPC)); 102 % of control (dose: 10.0 mg/kg/injection, schedule: Q01DX005 (ip), vehicle: Klucel (hydroxypropylcellulose) (HPC)).
